Laboratory results: patent US11051515B2, “3-acyl-benzamides and their use as herbicides” (Bayer Aktiengesellschaft, priority 2017, dated 2021)

Key:
ALOMY [1] = assay: Pre-emergence action against ALOMY; assay type: in vivo, Alopecurus myosuroides; details: dosage 320 g/ha, pre-emergence, scored visually after 3 weeks vs untreated controls, 100% = plants have died, 0% = like control plants
In short: (§1)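 Seeds sown in sandy loam in wood-fiber pots and covered with soil. Greenhouse growth; visual damage scored after 3 weeks versus untreated controls (100% = dead, 0% = like control).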

AVEFA [2] = assay: Pre-emergence action against AVEFA; assay type: in vivo, Avena fatua; details: dosage 320 g/ha, scored visually after 3 weeks vs untreated controls
In short: as §1

CYPES [3] = assay: Pre-emergence action against CYPES; assay type: in vivo, Cyperus esculentus; details: pre-emergence, dosage 320 g/ha, scored visually after 3 weeks vs untreated controls
In short: as §1

ECHCG [4] = assay: Pre-emergence action against ECHCG; assay type: in vivo, Echinochloa crus-galli; details: pre-emergence, dosage 320 g/ha, scored visually after 3 weeks vs untreated controls
In short: as §1

LOLRI [5] = assay: Pre-emergence action against LOLRI; assay type: in vivo, Lolium rigidum; details: Lolium rigidum, 504 h, dosage 320 g/ha, scored visually after 3 weeks vs untreated controls, read-out: Pre-emergence action against LOLRI (herbicidal activity)
In short: as §1

SETVI [6] = assay: Pre-emergence action against SETVI; assay type: in vivo, Setaria viridis; details: pre-emergence, dosage 320 g/ha, scored visually after 3 weeks vs untreated controls
In short: as §1

ABUTH [7] = assay: Pre-emergence action against ABUTH; assay type: in vivo, Abutilon theophrasti; details: pre-emergence, dosage 320 g/ha, scored visually after 3 weeks vs untreated controls
In short: as §1

AMARE [8] = assay: Pre-emergence action against AMARE; assay type: in vivo, Amaranthus retroflexus; details: pre-emergence, dosage 320 g/ha, scored visually after 3 weeks vs untreated controls
In short: as §1

MATIN [9] = assay: Pre-emergence action against MATIN; assay type: in vivo, Matricaria inodora; details: Dosage 320 g/ha, pre-emergence
In short: as §1

POLCO [10] = assay: Pre-emergence action against POLCO; assay type: in vivo, Polygonum convolvulus; details: Dosage 320 g/ha, pre-emergence
In short: as §1

STEME [11] = assay: Pre-emergence action against STEME; assay type: in vivo, Stellaria media; details: Dosage 320 g/ha, pre-emergence
In short: as §1

VIOTR [12] = assay: Pre-emergence action against VIOTR; assay type: in vivo, Viola tricolor; details: Dosage 320 g/ha, pre-emergence
In short: as §1

VERPE [13] = assay: Pre-emergence action against VERPE; assay type: in vivo, Veronica persica; details: Dosage 320 g/ha, pre-emergence
In short: as §1

CYPES [14] = assay: Post-emergence action against CYPES; assay type: in vivo, Cyperus esculentus; details: Cyperus esculentus, 504 h; post-emergence, dosage 80 g/ha, visual assessment about 3 weeks after treatment vs untreated controls; read-out: Post-emergence action against CYPES (herbicidal action in percent)
In short: (§2)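 Weeds grown in sandy loam in greenhouse, treated at one-leaf stage (2–3 weeks after sowing) with WP or EC formulations sprayed as aqueous suspension/emulsion at 600 to […] water with 0.2% wetting agent. Visual rating after about 3 weeks versus untreated controls, as % herbicidal action (100% = plants dead, 0% = like control).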

ECHCG [15] = assay: Post-emergence action against ECHCG; assay type: in vivo, Echinochloa crus-galli; details: post-emergence, dosage 80 g/ha, visual assessment about 3 weeks after treatment vs untreated controls
In short: as §2

LOLRI [16] = assay: Post-emergence action against LOLRI; assay type: in vivo, Lolium rigidum; details: Lolium rigidum, 504 h, dosage 80 g/ha, visual assessment about 3 weeks after treatment vs untreated controls, read-out: Post-emergence action against LOLRI (herbicidal action in percent)
Procedure: Seeds of monocotyledonous and dicotyledonous weed and crop plants are laid out in sandy loam soil in wood-fiber pots, covered with soil and cultivated in a greenhouse under good growth conditions. 2 to 3 weeks after sowing, the test plants are treated at the one-leaf stage. The compounds of the invention, formulated in the form of wettable powders (WP) or as emulsion concentrates (EC), are then sprayed onto the green parts of the plants in the form of an aqueous suspension or emulsion at a water application rate equating to […], with addition of 0.2% wetting agent. After the test plants have been left to stand in the greenhouse under optimal growth conditions for about 3 weeks, the action of the preparations is assessed visually in comparison to untreated controls (herbicidal action in percent (%): 100% activity=the plants have died, 0% activity=like control plants). […] At the same time, inventive compounds leave Gramineae crops such as barley, wheat, rye, millet/Sorghum, corn or rice virtually undamaged when applied post-emergence, even at high active ingredient dosages. In addition, some substances are also harmless to dicotyledonous crops such as soya, cotton, oilseed rape, sugar beet or potatoes. Some of the compounds according to the invention have high selectivity and are therefore suitable for controlling unwanted vegetation in agricultural crops by the post-emergence method. The data of Tables B18 to B34 below illustrate, in an exemplary manner, the […] herbicidal action of the compounds according to the invention, the herbicidal activity being stated in percent.

SETVI [17] = assay: Post-emergence action against SETVI; assay type: in vivo, Setaria viridis; details: post-emergence, dosage 80 g/ha, visual assessment about 3 weeks after treatment vs untreated controls
In short: as §2

ABUTH [18] = assay: Post-emergence action against ABUTH; assay type: in vivo, Abutilon theophrasti; details: post-emergence, dosage 80 g/ha, visual assessment about 3 weeks after treatment vs untreated controls
In short: as §2

AMARE [19] = assay: Post-emergence action against AMARE; assay type: in vivo, Amaranthus retroflexus; details: post-emergence, dosage 80 g/ha, visual assessment about 3 weeks after treatment vs untreated controls
In short: as §2

MATIN [20] = assay: Post-emergence action against MATIN; assay type: in vivo, Matricaria inodora; details: post-emergence, dosage 80 g/ha, visual assessment about 3 weeks after treatment vs untreated controls
In short: as §2

PHBPU [21] = assay: Post-emergence action against PHBPU; assay type: in vivo, Pharbitis purpurea; details: post-emergence, dosage 80 g/ha
In short: as §2

STEME [22] = assay: Post-emergence action against STEME; assay type: in vivo, Stellaria media; details: post-emergence, dosage 80 g/ha
In short: as §2

VIOTR [23] = assay: Post-emergence action against VIOTR; assay type: in vivo, Viola tricolor; details: post-emergence, dosage 80 g/ha
In short: as §2

VERPE [24] = assay: Post-emergence action against VERPE; assay type: in vivo, Veronica persica; details: dosage 80 g/ha
In short: as §2

LOLMU = assay: Pre-emergence action against LOLMU; assay type: in vivo, Lolium multiflorum; details: dosage 320 g/ha, scored visually after 3 weeks vs untreated controls
In short: as §1

PHBPU [25] = assay: Pre-emergence action against PHBPU; assay type: in vivo, Pharbitis purpurea; details: Dosage 320 g/ha, pre-emergence
In short: as §1

ALOMY [26] = assay: Post-emergence action against ALOMY; assay type: in vivo, Alopecurus myosuroides; details: Dosage 80 g/ha, post-emergence
In short: as §2

AVEFA [27] = assay: Post-emergence action against AVEFA; assay type: in vivo, Avena fatua; details: post-emergence, dosage 80 g/ha, visual assessment about 3 weeks after treatment vs untreated controls
In short: as §2

POLCO [28] = assay: Post-emergence action against POLCO; assay type: in vivo, Polygonum convolvulus; details: post-emergence, dosage 80 g/ha
In short: as §2

## CC(C)C(=O)c1c(C(F)(F)F)ccc(C(=O)Nc2nnnn2C)c1Cl [1-140]
ALOMY [1]; Alopecurus myosuroides, 504 h, read-out: Pre-emergence action against ALOMY (herbicidal activity in percent)
  pest or weed control at 320 g/ha: 100%
AVEFA [2]; Avena fatua, 504 h, read-out: Pre-emergence action against AVEFA (herbicidal activity)
  pest or weed control at 320 g/ha: 80%
CYPES [3]; Cyperus esculentus, 504 h, read-out: Pre-emergence action against CYPES (herbicidal activity)
  pest or weed control at 320 g/ha: 90%
ECHCG [4]; Echinochloa crus-galli, 504 h, read-out: Pre-emergence action against ECHCG (herbicidal activity)
  pest or weed control at 320 g/ha: 100%
LOLRI [5]
  pest or weed control at 320 g/ha: 100%
SETVI [6]; Setaria viridis, 504 h, read-out: SETVI (Table B8, pre-emergence herbicidal activity)
  pest or weed control at 320 g/ha: 100%
ABUTH [7]; Abutilon theophrasti, 504 h, read-out: Pre-emergence action against ABUTH (herbicidal activity)
  pest or weed control at 320 g/ha: 100%
AMARE [8]; Amaranthus retroflexus, 504 h, read-out: Pre-emergence action against AMARE (herbicidal activity)
  pest or weed control at 320 g/ha: 100%
MATIN [9]; Tripleurospermum inodorum, 504 h
  pest or weed control at 320 g/ha: 100%
POLCO [10]; Fallopia convolvulus, 504 h
  pest or weed control at 320 g/ha: 80%
STEME [11]; Stellaria media, 504 h
  pest or weed control at 320 g/ha: 100%
VIOTR [12]; Viola tricolor, 504 h
  pest or weed control at 320 g/ha: 100%
VERPE [13]; Veronica persica, 504 h
  pest or weed control at 320 g/ha: 100%
CYPES [14]
  pest or weed control at 80 g/ha: 90%
ECHCG [15]; Echinochloa crus-galli, 504 h, read-out: Post-emergence action against ECHCG (herbicidal action in percent)
  pest or weed control at 80 g/ha: 100%
LOLRI [16]
  pest or weed control at 80 g/ha: 80%
SETVI [17]; Setaria viridis, 504 h, read-out: Post-emergence action against SETVI (herbicidal action in percent)
  pest or weed control at 80 g/ha: 100%
ABUTH [18]; Abutilon theophrasti, 504 h, read-out: Post-emergence action against ABUTH (herbicidal action in percent)
  pest or weed control at 80 g/ha: 100%
AMARE [19]; Amaranthus retroflexus, 504 h, read-out: Post-emergence action against AMARE (herbicidal action in percent)
  pest or weed control at 80 g/ha: 90%
MATIN [20]; Tripleurospermum inodorum, 504 h, read-out: Post-emergence action against MATIN (herbicidal action in percent)
  pest or weed control at 80 g/ha: 100%
PHBPU [21]; Ipomoea purpurea, 504 h
  pest or weed control at 80 g/ha: 90%
STEME [22]; Stellaria media, 504 h
  pest or weed control at 80 g/ha: 100%
VIOTR [23]; Viola tricolor, 504 h
  pest or weed control at 80 g/ha: 100%
VERPE [24]; Veronica persica, 504 h
  pest or weed control at 80 g/ha: 80%

## CCn1nnnc1NC(=O)c1ccc(C(F)(F)F)c(C(=O)C2CC2)c1OC [2-50]
ALOMY [1]
  Pre-emergence action against ALOMY (herbicidal activity in percent): 100%
AVEFA [2]
  Pre-emergence action against AVEFA (herbicidal activity): 100%
CYPES [3]
  Pre-emergence action against CYPES (herbicidal activity): 100%
ECHCG [4]
  Pre-emergence action against ECHCG (herbicidal activity): 100%
LOLMU
  Pre-emergence action against LOLMU (herbicidal activity): 100%
SETVI [6]
  SETVI (Table B8, pre-emergence herbicidal activity): 100%
ABUTH [7]
  Pre-emergence action against ABUTH (herbicidal activity): 100%
AMARE [8]
  Pre-emergence action against AMARE (herbicidal activity): 100%
MATIN [9]
  Pre-emergence action against MATIN: 100%
PHBPU [25]
  Pre-emergence action against PHBPU: 100%
POLCO [10]
  Pre-emergence action against POLCO: 80%
STEME [11]
  Pre-emergence action against STEME: 100%
VIOTR [12]
  Pre-emergence action against VIOTR: 100%
VERPE [13]
  Pre-emergence action against VERPE: 100%
ALOMY [26]
  Post-emergence action against ALOMY: 90%
AVEFA [27]
  Post-emergence action against AVEFA (herbicidal action in percent): 90%
ECHCG [15]
  Post-emergence action against ECHCG (herbicidal action in percent): 100%
SETVI [17]
  Post-emergence action against SETVI (herbicidal action in percent): 100%
ABUTH [18]
  Post-emergence action against ABUTH (herbicidal action in percent): 90%
AMARE [19]
  Post-emergence action against AMARE (herbicidal action in percent): 100%
MATIN [20]
  Post-emergence action against MATIN (herbicidal action in percent): 100%
PHBPU [21]
  Post-emergence action against PHBPU: 100
POLCO [28]
  Post-emergence action against POLCO: 90
STEME [22]
  Post-emergence action against STEME: 100
VIOTR [23]
  Post-emergence action against VIOTR: 100
VERPE [24]
  Post-emergence action against VERPE: 90

## CCn1nnnc1NC(=O)c1ccc(SC)c(C(=O)C2CC2)c1Cl [2-123]
ALOMY [1]
  Pre-emergence action against ALOMY (herbicidal activity in percent): 100%
AVEFA [2]
  Pre-emergence action against AVEFA (herbicidal activity): 80%
CYPES [3]
  Pre-emergence action against CYPES (herbicidal activity): 90%
ECHCG [4]
  Pre-emergence action against ECHCG (herbicidal activity): 100%
LOLMU
  Pre-emergence action against LOLMU (herbicidal activity): 90%
SETVI [6]
  SETVI (Table B8, pre-emergence herbicidal activity): 100%
ABUTH [7]
  Pre-emergence action against ABUTH (herbicidal activity): 100%
AMARE [8]
  Pre-emergence action against AMARE (herbicidal activity): 100%
MATIN [9]
  Pre-emergence action against MATIN: 100%
STEME [11]
  Pre-emergence action against STEME: 100%
VIOTR [12]
  Pre-emergence action against VIOTR: 100%
VERPE [13]
  Pre-emergence action against VERPE: 100%
ALOMY [26]
  Post-emergence action against ALOMY: 90%
AVEFA [27]
  Post-emergence action against AVEFA (herbicidal action in percent): 100%
ECHCG [15]
  Post-emergence action against ECHCG (herbicidal action in percent): 100%
SETVI [17]
  Post-emergence action against SETVI (herbicidal action in percent): 100%
ABUTH [18]
  Post-emergence action against ABUTH (herbicidal action in percent): 100%
AMARE [19]
  Post-emergence action against AMARE (herbicidal action in percent): 100%
MATIN [20]
  Post-emergence action against MATIN (herbicidal action in percent): 100%
PHBPU [21]
  Post-emergence action against PHBPU: 100
STEME [22]
  Post-emergence action against STEME: 100
VIOTR [23]
  Post-emergence action against VIOTR: 100
VERPE [24]
  Post-emergence action against VERPE: 100
